Legend:
[1] = tested on: human urethra; test: Efficacy: contraction of human urethra compared with noradrenaline; format: cell-based; conditions: percentage of contraction compared with noradrenaline
Procedure: (§1) The efficacy and selectivity of the compound according to the invention is determined as follows, using the same findings as described in 1:
Maximum contraction in the dog and activity on human urethra are percentages of contraction compared with noradrenaline.

[2] = tested on: dog's femoral artery; carotid artery in the dog; test: Selectivity in the dog: femoral artery versus carotid artery contraction; format: cell-based; conditions: difference of percentage contraction of dog's femoral artery at 10^-5 M and percentage contraction of carotid artery at 10^-5 M
Procedure: as §1
Selectivity in the dog is the difference obtained from the percentage contraction of the dog's femoral artery at 10^-5 M and percentage contraction of the carotid artery in the dog at 10^-5 M.

[3] = Metabolism: substrate breakdown by the enzyme CYP2D6; format: in vitro ADME; conditions: 30 minutes' incubation with CYP2D6; read-out: % Substrate breakdown after 30 minutes' incubation with CYP2D6
Procedure: To determine the metabolism the enzyme CYP2D6 was allowed to act on the hydrochloride of the compound 1 according to the formula I (2-amino-1-(4-hydroxy-3-methanesulphonamidophenyl)ethanol). After 30 minutes a check was made to determine how much of the substance had been broken down by the enzyme. (-)-R-2-Amino-1-(2-fluoro-5-methanesulphonamido-phenyl)ethanol 2 was used as a comparison.

SMILES	Emax [1]	selectivity in the dog [2]	metabolised at 0.5 h [3]
CS(=O)(=O)Nc1cc(C(O)CN)ccc1O (stereo not drawn) [Compound 1, 2-amino-1-(4-hydroxy-3-methanesulphonamidophenyl)ethanol]	120%	53	1.4%
CS(=O)(=O)Nc1ccc(F)c([C@@H](O)CN)c1 [Compound 2, (-)-R-2-Amino-1-(2-fluoro-5-methanesulphonamido-phenyl)ethanol]	48%	40	2.1%

Reference: patent EP1363614B1, “USE OF 2-AMINO-1-(4-HYDROXY-3-METHANESULPHONAMIDOPHENYL)ETHANOL FOR TREATING URINARY INCONTINENCE” (Boehringer Ingelheim Pharma GmbH & Co. KG, priority 2001, dated 2002)
